Entries after “also recorded” stand apart in the source; their conditions may differ. Like-named read-outs stand apart in the source and are kept apart here. One block for each molecule: values may come before it.
Legend:
[1] = Caco-2 trans-well apparent permeability assay; format: in vitro ADME; conditions: human, pH 7.4, Caco-2, 5 µM
Method: (§1) To initially characterize the permeability of BKIs 1294, 1369, and 1318, the software MedChem Designer (Simulations +, Lancaster, CA) was used to predict the Peff. The in vitro apparent permeability (Papp) was carried out by Absorption Systems LP (Exton, PA) with a Caco-2 trans-well assay. Caco-2 cells (clone C2BBe1) were obtained from American Type Culture Collection (Manassas, VA) were grown to confluence on collagen-coated, microporous membranes in 12-well assay plates. The permeability assay buffer was Hanks’ balanced salt solution (HBSS) containing 10 mM HEPES and 15 mM glucose at a pH of 7.4. The buffer in the receiver chamber also contained 1% bovine serum albumin. The dosing solution concentration was 5 µM BKI in assay buffer, and the cell monolayers were dosed on the apical side (A?B) or basolateral side (B?A) and incubated at 37°C with 5% CO2 in a humidified incubator. After 120 minutes, samples were taken from the donor and receiver chambers in duplicate. The Papp was calculated with equation (1) and the percent recovery with equation (2).
(§2) Papp = (dCr/dt) × Vr/(A × CA) (1)
(§3) Percent Recovery = 100 × ((Vr × Cr^final) + (Vd × Cd^final))/(Vd × […]) (2)
(§4) where dCr/dt is the slope of the cumulative concentration in the receiver compartment versus time in µM s^-1; Vr is the volume of the receiver compartment in cm^3; Vd is the volume of the donor compartment in cm^3; A is the area of the insert (1.13 cm^2 for 12-well); CA is the average of the nominal dosing concentration and the measured 120 minute donor concentration in µM; CN is the nominal concentration of the dosing solution in µM; Cr^final is the cumulative receiver concentration in µM at the end of the incubation period; Cd^final is the concentration of the donor in µM at the end of the incubation period.
(§5) To ensure no damage was inflicted to the cell monolayers during the flux period, lucifer yellow flux was also measured post-experimentally for each monolayer. To determine whether BKIs 1294, 1369, and 1318 were substrates of P-gp in vitro, P-gp efflux was characterized using the Caco-2 permeability assay protocol with a few modifications. The dosing solution concentration was 5 μM of BKI in the assay buffer +/- 1 μM valspodar. Cells were first pre-incubated for 30 minutes with HBSS containing +/- 1 μM valspodar. Cell monolayers were dosed on the apical side (A?B) or basolateral side (B?A), and incubated at 37°C with 5% CO2 in a humidified incubator. Samples were taken from the donor and receiver chambers at 120 minutes. Each determination was performed in duplicate.

Caco-2 cells = experiment: Caco-2 trans-well apparent permeability assay; format: in vitro ADME; conditions: Caco-2
Method: as §1, §2, §3, §4, §5

[2] = Mouse gastrointestinal tissue pharmacokinetics; format: in vivo, mice; conditions: for AUC(0-t) / Cmax / Tmax: mouse, po
C. parvum [3] = experiment: IFN-γ KO mouse model of Cryptosporidium infection; format: in vivo, mice; conditions: for Effect of elacridar coadministration on in vivo efficacy: IFN-γ KO mice, once daily for 5 days
Method: Efficacy in female IFN-γ KO mice (B6.129S7-Ifngtm1Ts/J; Jackson Laboratories) aged 8–10 weeks was evaluated as previously described. Beginning on day 6 after infection, mice were dosed with 30 mg/kg BKI1318 suspended in 0.2 mL of vehicle, 15 mg/kg elacridar in 0.1 mL of vehicle followed 15 minutes later by 30 mg/kg BKI1318 in 0.1 mL of vehicle, or 0.2 mL of vehicle only once daily for 5 days. Fecal specimens were collected daily from each group and weighed. Each fecal sample was checked for luminescence on the day of collection, and the number of relative light units was determined and normalized to fecal sample weights.

C. parvum [4] = tested on: C. parvum; parameters: method as in PMID 28329187; conditions: previously published study; cited from earlier work

efflux ratio at 120 min, 5 µM [1]: 69 | Papp A→B at 120 min, 5 µM [1]: 0.29 ×10⁻⁶ cm/s | Papp B→A at 120 min, 5 µM [1]: 20.3 ×10⁻⁶ cm/s | A → B Papp, fold lower than BKI1369 and BKI1294 (Caco-2 cells): approximately 50 fold | Effect of elacridar on levels in the cecum/colon ([2]; mice, cecum/colon tissue): did not significantly affect | Increase of duodenum exposure when elacridar administered before ([2]; mice, duodenum tissue, P < .05): approximately 2 fold | Increase of ileum exposure when elacridar administered before ([2]; mice, ileum tissue, P < .05): approximately 3 fold | Increase of jejunum exposure when elacridar administered before ([2]; mice, jejunum tissue, P < .05): approximately 2 fold | AUC(0-t) ([2]; cecum/colon, 30 mg/kg, Cecum/Colon, BKI 1318 alone, read-out: AUC0-12): 109 µM·h | Cmax ([2]; cecum/colon, 30 mg/kg, Cecum/Colon, BKI 1318 alone, read-out: Observed Cmax): 14.4 µM | Tmax ([2]; cecum/colon, 30 mg/kg, Cecum/Colon, BKI 1318 alone, read-out: Tmax): 9.3 h | AUC(0-t) ([2]; cecum/colon, Cecum/Colon, with elacridar, read-out: AUC0-12 w/ Elacridar): 65.5 ± 4 µM·h | Cmax ([2]; cecum/colon, Cecum/Colon, with elacridar, read-out: Cmax w/ Elacridar): 8.2 ± 0.3 µM | Tmax ([2]; cecum/colon, Cecum/Colon, with elacridar, read-out: Tmax w/ Elacridar): 7.3 ± 4.1 h | AUC(0-t) ([2]; duodenum, Duodenum, BKI 1318 alone, read-out: AUC0-12): 235 µM·h | Cmax ([2]; duodenum, Duodenum, BKI 1318 alone, read-out: Observed Cmax): 77.2 µM | Tmax ([2]; duodenum, Duodenum, BKI 1318 alone, read-out: Tmax): 0.5 h | AUC(0-t) ([2]; duodenum, Duodenum, with elacridar, P≤0.001, read-out: AUC0-12 w/ Elacridar): 537 µM·h | Cmax ([2]; duodenum, Duodenum, with elacridar, read-out: Cmax w/ Elacridar): 110 µM | Tmax ([2]; duodenum, Duodenum, with elacridar, read-out: Tmax w/ Elacridar): 0.7 ± 0.2 h | AUC(0-t) ([2]; ileum, 30 mg/kg, Ileum, BKI 1318 alone, read-out: AUC0-12): 336 µM·h | Cmax ([2]; ileum, Ileum, BKI 1318 alone, read-out: Observed Cmax): 79.8 µM | Tmax ([2]; ileum, Ileum, BKI 1318 alone, read-out: Tmax): 4.3 h | AUC(0-t) ([2]; ileum, Ileum, with elacridar, P≤0.05, read-out: AUC0-12 w/ Elacridar): 1150 µM·h | Cmax ([2]; ileum, Ileum, with elacridar, read-out: Cmax w/ Elacridar): 177 µM | Tmax ([2]; ileum, Ileum, with elacridar, read-out: Tmax w/ Elacridar): 2 h | AUC(0-t) ([2]; jejunum, Jejunum, BKI 1318 alone, read-out: AUC0-12): 279 µM·h | Cmax ([2]; jejunum, Jejunum, BKI 1318 alone, read-out: Observed Cmax): 108 µM | Tmax ([2]; jejunum, Jejunum, BKI 1318 alone, read-out: Tmax): 0.8 h | AUC(0-t) ([2]; jejunum, Jejunum, with elacridar, P≤0.05, read-out: AUC0-12 w/ Elacridar): 558 µM·h | Cmax ([2]; jejunum, Jejunum, with elacridar, read-out: Cmax w/ Elacridar): 98.1 µM | Tmax ([2]; jejunum, Jejunum, with elacridar, read-out: Tmax w/ Elacridar): 1.8 ± 1.5 h
Compound: CCOc1ccc2cc(-c3nn(CC4CCNCC4)c4ncnc(N)c34)ccc2n1 [BKI1318]
Reduction in C. parvum oocyst excretion (C. parvum [3]; 60 mg/kg once daily for 5 days, without elacridar): < 1 log | Effect of elacridar coadministration on in vivo efficacy (C. parvum [3]): increased the level by which BKI1318 reduced the Cryptosporidium burden; also recorded: improvement in efficacy

Papp A→B at 120 min, 5 µM [1]: 12.4 ×10⁻⁶ cm/s | Papp B→A at 120 min, 5 µM [1]: 32.7 ×10⁻⁶ cm/s
Compound: CCOc1ccc2cc(-c3nn(CC4CCN(C)CC4)c4ncnc(N)c34)ccc2n1 [BKI1369]
Effect of elacridar coadministration on in vivo efficacy (C. parvum [3]): no effect; also recorded: did not affect | C. parvum reduction in mouse model of cryptosporidiosis (C. parvum [4]): > 2 log

Source: PMC6736360, “P-Glycoprotein–Mediated Efflux Reduces the In Vivo Efficacy of a Therapeutic Targeting the Gastrointestinal Parasite Cryptosporidium” (The Journal of Infectious Diseases, 2019)
